The results in this text go back to patent US12577234B2, “Antagonists of the muscarinic acetylcholine receptor M4” (Vanderbilt University, priority 2017, dated 2026).

The assay concerns the target T1, human mAChR M4 (Homo sapiens, UniProt P08173).
T1 construct: expressed in transfected cells; host or cells: CHO-K1 (ATCC), stably co-expressing chimeric G protein Gqi5
T1 sequence (P08173 1-479): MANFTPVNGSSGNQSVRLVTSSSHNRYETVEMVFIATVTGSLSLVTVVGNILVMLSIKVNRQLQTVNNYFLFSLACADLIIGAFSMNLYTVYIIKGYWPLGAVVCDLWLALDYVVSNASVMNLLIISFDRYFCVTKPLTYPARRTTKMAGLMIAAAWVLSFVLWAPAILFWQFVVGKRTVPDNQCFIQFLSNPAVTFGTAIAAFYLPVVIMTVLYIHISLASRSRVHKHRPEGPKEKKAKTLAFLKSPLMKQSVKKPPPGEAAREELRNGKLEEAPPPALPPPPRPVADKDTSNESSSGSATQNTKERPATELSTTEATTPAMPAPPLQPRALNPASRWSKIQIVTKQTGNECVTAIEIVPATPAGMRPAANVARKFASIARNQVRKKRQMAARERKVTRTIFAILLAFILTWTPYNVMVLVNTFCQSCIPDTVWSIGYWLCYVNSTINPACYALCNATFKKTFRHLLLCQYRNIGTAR
Nature of the assay: mAChR M4 cell-based functional assay (calcium mobilization, EC80 acetylcholine), human M4. The note with it: for Emin: human M4, % ACh maximum at 30 μM. On the procedure:
Human or rat M4 cDNA, along with the chimeric G protein Gqi5, were transfected into Chinese hamster ovary (CHO-K1) cells purchased from the American Type Culture Collection using Lipofectamine2000. M4/Gqi5/CHO cells were grown in Ham's F-12 medium containing 10% heat-inactivated fetal bovine serum (FBS), 20 mM HEPES, 500 μg/mL G418 sulfate, and 200 μg/mL Hygromycin B.
For high throughput measurement of agonist-evoked increases in intracellular calcium, CHO-K1 cells stably expressing muscarinic receptors were plated in growth medium lacking G418 and hygromycin at 15,000 cells/20 μL/well in Greiner 384-well black-walled, tissue culture (TC)-treated, clear-bottom plates (VWR). Cells were incubated overnight at 37° C. and 5% CO2. […] Compound master plates were formatted in a 10 point concentration-response curve (CRC) format (1:3 dilutions) in 100% DMSO with a starting concentration of 10 or 1 mM using a BRAVO liquid handler (Agilent). Test compound CRCs were then transferred to daughter plates (240 nL) using the Echo acoustic plate reformatter (Labcyte, Sunnyvale, CA) and then diluted into assay buffer (40 μL) to a 2× stock using a Thermo Fisher Combi (Thermo Fisher Scientific, Waltham, MA).
Calcium flux was measured using the Functional Drug Screening System (FDSS) 6000 or 7000 (Hamamatsu Corporation, Tokyo, Japan) as an increase in the fluorescent static ratio. Compounds were applied to cells (20 μL, 2×) using the automated system of the FDSS at 2 seconds into the protocol and the data were collected at 1 Hz. […] Agonist activity was analyzed as a concentration-dependent increase in calcium mobilization upon compound addition. Positive allosteric modulator activity was analyzed as a concentration-dependent increase in the EC20 acetylcholine response. Antagonist activity was analyzed as a concentration-dependent decrease in the EC80 acetylcholine response; for the purposes of the tables herein, an IC50 (inhibitory concentration 50) was calculated as a concentration-dependent decrease of the response elicited by an EC80 concentration of acetylcholine. Concentration-response curves were generated using a four-parameter logistical equation in XLFit curve fitting software (IDBS, Bridgewater, NJ) for Excel (Microsoft, Redmond, WA) or Prism (GraphPad Software, Inc., San Diego, CA) or the Dotmatics software platform (Dotmatics, Bishop's Stortford, UK).

Setting [1] is: Table 9, M4/Gqi5/CHO-K1 cells, decrease of EC80 acetylcholine response.
Setting [2] is: Table 10, M4/Gqi5/CHO-K1 cells, decrease of EC80 acetylcholine response.

As a reminder, the IC50 is the midpoint of a concentration-inhibition curve. In the case of `Fc1ccc(Cl)c(-c2ccc(N[C@H]3C[C@@H]4CN(CC5CC6C=CC5C6)C[C@@H]4C3)nn2)c1` (stereo partly drawn) [Compound 27, (3aR,5s,6aS)-2-(5-bicyclo[2.2.1]hept-2-enylmethyl)-N-[6-(2-chloro-5-fluoro-phenyl)pyridazin-3-yl]-3,3a,4,5,6,6a-hexahydro-1H-cyclopenta[c]pyrrol-5-amine], under setting [1], the half-inhibitory concentration (IC50) stood at 0.0093 µM. The Emin (Table 9) is 5.94%.
For `Cc1cnn(C)c1-c1ccc(NCCC2C[C@@H]3CN(CC4CC5C=CC4C5)C[C@@H]3C2)nn1` (stereo partly drawn) [Compound 123, N-[2-[(3aR,6aS)-2-(5-bicyclo[2.2.1]hept-2-enylmethyl)-3,3a,4,5,6,6a-hexahydro-1H-cyclopenta[c]pyrrol-5-yl]ethyl]-6-(2,4-dimethylpyrazol-3-yl)pyridazin-3-amine], under setting [1], the half-maximal inhibitory concentration (IC50) is 0.0062 µM. Moreover, for the setting “Table 9”, the Emin is reported as 2.16%.
Take `c1cc2c(cc1-c1ccc(N[C@H]3C[C@@H]4CN(CC5CCOCC5)C[C@@H]4C3)nn1)OCO2` [Compound 182, (3aR,5s,6aS)-N-[6-(1,3-benzodioxol-5-yl)pyridazin-3-yl]-2-(tetrahydropyran-4-ylmethyl)-3,3a,4,5,6,6a-hexahydro-1H-cyclopenta[c]pyrrol-5-amine]: the “Human M4 Emin” value (Table 10) was determined as 4%. For the same molecule, the half-maximal inhibitory concentration (IC50) under setting [2] came to 0.00187 µM.
As for `Cc1cnn(C)c1-c1ccc(OCC2C[C@@H]3CN(CC4CC5C=CC4C5)C[C@@H]3C2)nn1` (stereo partly drawn) [Compound 80, (3aR,6aS)-2-(5-bicyclo[2.2.1]hept-2-enylmethyl)-5-[[6-(2,4-dimethylpyrazol-3-yl)pyridazin-3-yl]oxymethyl]-3,3a,4,5,6,6a-hexahydro-1H-cyclopenta[c]pyrrole], the half-inhibitory concentration (IC50) under setting [1] was 0.0734 µM. Besides, the Emin (Table 9) came out at 4.07%.
Take `Cc1nn(C)cc1-c1ccc(N[C@H]2C[C@@H]3CN(CC4CCOCC4)C[C@@H]3C2)nn1` [Compound 5, (3aR,5s,6aS)-N-[6-(1,3-dimethylpyrazol-4-yl)pyridazin-3-yl]-2-(tetrahydropyran-4-ylmethyl)-3,3a,4,5,6,6a-hexahydro-1H-cyclopenta[c]pyrrol-5-amine]: under setting [1], the IC50 was found to be 0.01 µM. Besides, the Emin (Table 9) amounted to 2.98%.
Regarding `Cc1cnn(C)c1-c1ccc(NC[C@H]2C[C@@H]3CN(CC4CC5C=CC4C5)C[C@@H]3C2)nn1` (stereo partly drawn) [Compound 64, N-[[(3aR,5s,6aS)-2-(5-bicyclo[2.2.1]hept-2-enylmethyl)-3,3a,4,5,6,6a-hexahydro-1H-cyclopenta[c]pyrrol-5-yl]methyl]-6-(2,4-dimethylpyrazol-3-yl)pyridazin-3-amine], the IC50 under setting [1] stood at 0.0079 µM. Where the note is “Table 9”, the Emin is 3.74%.
Regarding `F[C@H]1CCN(c2ccc(N[C@H]3C[C@@H]4CN(CC5CCOCC5)C[C@@H]4C3)nn2)C1` [Compound 195, (3aR,5s,6aS)-N-[6-[(3R)-3-fluoropyrrolidin-1-yl]pyridazin-3-yl]-2-(tetrahydropyran-4-ylmethyl)-3,3a,4,5,6,6a-hexahydro-1H-cyclopenta[c]pyrrol-5-amine], under “Table 10”, the “Human M4 Emin” value is recorded as 4%. The IC50 under setting [2] was 0.00911 µM.
Take “[(3aR,5r,6aS)-5-[6-(1,3-dimethylpyrazol-4-yl)pyridazin-3-yl]oxy-3,3a,4,5,6,6a-hexahydro-1H-cyclopenta[c]pyrrol-2-yl]-(1-adamantyl)methanone [Compound 60]”: the Emin (Table 9) was 58.2%. In addition, the IC50 (Table 9, μM) is over 10 µM.
As for `CS(=O)(=O)Nc1cccc(-c2ccc(N[C@H]3C[C@@H]4CN(CC5CCOCC5)C[C@@H]4C3)nn2)c1` [Compound 217, N-[3-[6-[[(3aR,5s,6aS)-2-(tetrahydropyran-4-ylmethyl)-3,3a,4,5,6,6a-hexahydro-1H-cyclopenta[c]pyrrol-5-yl]amino]pyridazin-3-yl]phenyl]methanesulfonamide], the “Human M4 Emin” value (Table 10) amounted to 16%. The IC50 under setting [2] came out at 0.00738 µM.
For `Cc1nn(C)cc1-c1ccc(N[C@H]2C[C@@H]3CN(CC45CC6CC(CC(C6)C4)C5)C[C@@H]3C2)nn1` [Compound 37, (3aR,5s,6aS)-2-(1-adamantylmethyl)-N-[6-(1,3-dimethylpyrazol-4-yl)pyridazin-3-yl]-3,3a,4,5,6,6a-hexahydro-1H-cyclopenta[c]pyrrol-5-amine], under setting [1], the half-maximal inhibitory concentration (IC50) was found to be 0.0258 µM. For the same molecule, the Emin (Table 9) was found to be 5.65%.
With `CCC(C)CN1C[C@H]2CC(COc3ccc(-c4cn(C)nc4C)nn3)C[C@H]2C1` (stereo partly drawn) [Compound 95, (3aR,6aS)-5-[[6-(1,3-dimethylpyrazol-4-yl)pyridazin-3-yl]oxymethyl]-2-(2-methylbutyl)-3,3a,4,5,6,6a-hexahydro-1H-cyclopenta[c]pyrrole], the IC50 under setting [1] worked out at 0.659 µM. The Emin (Table 9) is recorded as 4.74%.
Consider `Cc1noc(C)c1-c1ccc(O[C@H]2C[C@@H]3CN(CCC(C)(C)C)C[C@@H]3C2)nn1` [Compound 136, 4-[6-[[(3aR,5s,6aS)-2-(3,3-dimethylbutyl)-3,3a,4,5,6,6a-hexahydro-1H-cyclopenta[c]pyrrol-5-yl]oxy]pyridazin-3-yl]-3,5-dimethyl-isoxazole], for which, for the setting “Table 10”, the “Human M4 Emin” value is given as 3%. The IC50 under setting [2] was found to be 0.174 µM.
As for `Fc1ccc(Cl)c(-c2ccc(O[C@@H]3C[C@@H]4CN(CC5CC6C=CC5C6)C[C@@H]4C3)nn2)c1` (stereo partly drawn) [Compound 53, (3aR,5r,6aS)-2-(5-bicyclo[2.2.1]hept-2-enylmethyl)-5-[6-(2-chloro-5-fluoro-phenyl)pyridazin-3-yl]oxy-3,3a,4,5,6,6a-hexahydro-1H-cyclopenta[c]pyrrole], under setting [1], the concentration for half-maximal inhibition (IC50) was found to be 0.1 µM. In addition, the Emin (Table 9) was 3.21%.
For the molecule `Cc1nn(C)cc1-c1cnc(N[C@H]2C[C@@H]3CN(CC45CC6CC(CC(C6)C4)C5)C[C@@H]3C2)cn1` [Compound 155, (3aR,5s6aS)-2-(1-adamantylmethyl)-N-[5-(1,3-dimethylpyrazol-4-yl)pyrazin-2-yl]-3,3a,4,5,6,6a-hexahydro-1H-cyclopenta[c]pyrrol-5-amine], the “Human M4 Emin” value (Table 10) is 4%. In addition, the half-maximal inhibitory concentration (IC50) under setting [2] amounted to 0.0159 µM.
Turning to `Cc1cnn(C)c1-c1ccc(NCCC2C[C@@H]3CN(CC4CCOCC4)C[C@@H]3C2)nn1` (stereo partly drawn) [Compound 125, N-[2-[(3aR,6aS)-2-(tetrahydropyran-4-ylmethyl)-3,3a,4,5,6,6a-hexahydro-1H-cyclopenta[c]pyrrol-5-yl]ethyl]-6-(2,4-dimethylpyrazol-3-yl)pyridazin-3-amine], the IC50 under setting [1] came to 0.0287 µM. Also, the Emin (Table 9) is on record as 4.41%.
Regarding `Cc1nn(C)cc1-c1ccc(O[C@@H]2C[C@@H]3CN(CC4CC5C=CC4C5)C[C@@H]3C2)nn1` (stereo partly drawn) [Compound 47, (3aR,5r,6aS)-2-(5-bicyclo[2.2.1]hept-2-enylmethyl)-5-[6-(1,3-dimethylpyrazol-4-yl)pyridazin-3-yl]oxy-3,3a,4,5,6,6a-hexahydro-1H-cyclopenta[c]pyrrole], the IC50 under setting [1] turned out to be 0.0945 µM. The Emin (Table 9) stood at 3.08%.
Regarding `Fc1ccc(Cl)c(-c2ccc(O[C@@H]3C[C@@H]4CN(CC5CCCCC5)C[C@@H]4C3)nn2)c1` [Compound 56, (3aR,5r,6aS)-5-[6-(2-chloro-5-fluoro-phenyl)pyridazin-3-yl]oxy-2-(cyclohexylmethyl)-3,3a,4,5,6,6a-hexahydro-1H-cyclopenta[c]pyrrole], under setting [1], the IC50 was determined as 0.154 µM. Moreover, the Emin (Table 9) is 3.63%.
With `CC(=O)Nc1ccc(-c2cnc(N[C@H]3C[C@@H]4CN(CC5CC6C=CC5C6)C[C@@H]4C3)cn2)cc1` (stereo partly drawn) [Compound 157, N-[4-[5-[[(3aR,5s,6aS)-2-(5-bicyclo[2.2.1]hept-2-enylmethyl)-3,3a,4,5,6,6a-hexahydro-1H-cyclopenta[c]pyrrol-5-yl]amino]pyrazin-2-yl]phenyl]acetamide], the “Human M4 Emin” value (Table 10) was found to be 5%. For the same molecule, the IC50 under setting [2] is 0.0529 µM.
